Measurements from EP0223143A2, “Analogs of atrial natriuretic peptides” (CALIFORNIA BIOTECHNOLOGY, INC., priority 1985, dated 1987).
“Also recorded” adds a separate entry of the source. Where a SMILES comes first, the peptide text is derived from it. Bridges are numbered along the chain shown (N, C = ends). Where no end group is shown, it is not given here. [ ]: non-standard residue; d: D form. The star is where a group is joined. Phenylacetyl(4-Ph) = O=C(Cc1ccc(-c2ccccc2)cc1)*; Acetyl(2-naphthyloxy) = O=C(COc1ccc2ccccc2c1)*; Acetyl(2-naphthyl) = O=C(Cc1ccc2ccccc2c1)*

Legend:
[1] = system: specific receptor sites on BASM or BAE cells; test: competitive displacement receptor binding assay (Tables IA-IE); design: species or system bovine; conditions: statements in words on Tables IA-IE; displacement of [^125I]-rANP(126-150)
Text: (§1) An assay has been developed, generally in accordance with the disclosure of Schenk, supra, and Scarborough, R.M. et al., J. Biol. Chem. 261:12960-12964 (1986), which evaluates the ability of ANP analogs to compete with a labeled native ANP for binding to cultured BASM and BAE cells. This native ANP, having the amino acid sequence: [drawing 103] was iodinated on the Carboxy-terminal Y residue and is identified as […]. Analogous "competitive displacement" receptor binding assays are considered commonplace in the art for examining specific ligand-receptor interactions.
(§2) Assuming these ANP analogs act at one or more ANP receptor sites, then increased receptor affinity should reflect increased biological potency.

[2] = system: pentobarbital anesthetized dogs; test: diuresis and natriuresis in anesthetized dogs; assay type: in vivo; conditions: vs saline controls
Description: In these examples, cannulae were placed in the left and right ureters and femoral vein of anesthetized dogs and urine was collected from the ureters. Analog peptides were administered via the femoral vein. Prior to infusing analog peptides, saline was infused for 30 minutes and urine was then collected for three ten minute collection periods. Urine volume was determined gravimetrically and urine sodium was determined photometrically.
Following these three baseline collection periods, the selected analog peptides were infused for 60 minutes and urinary flow was measured for an additional 60 minutes following infusion. During infusion (60 minutes) and recovery (60 minutes), ten minute collection periods were obtained. Control animals which received only saline were studied in parallel.

anesthetized rats = test: diuresis in anesthetized rats; assay type: in vivo; conditions: compared with baseline, Figure 2
Description: In one set of examples, cannulae were placed in the left and right ureters and femoral vein of anesthetized rats and urine was collected from the ureters. Analog peptides were administered via the femoral vein. Prior to infusing the analog peptides, saline was infused for 30 minutes, urine was collected for 6 five minutes baseline periods and urine volume was determined gravimetrically. Following these baseline collection periods, various analog peptides were infused for 30 or 60 minutes and urine volume was measured in five minute periods during infusion and for 60 minutes following infusion (at which time rats were returned to saline). Data was examined by averaging urine flow rates for six five- minute baseline control periods immediately preceding infusion, and comparing values during and after administration of peptides with the "baseline" control values. Responses to peptides are thus evaluated and plotted as the percent of baseline control responses. Specific examples are shown in Figures 2A-H. The error bars at the beginning of the graphs represent baseline values ± standard deviations. Responses to peptides that are substantially above baseline ± SD can thus be interpreted as being statistically significant increases.

[3] = molecular target: T1, BASM cell-associated receptors (Bos taurus, UniProt P10730); test: competitive displacement receptor binding assay, BASM cells (Figure 1); design: species or system bovine; conditions: 0.5 nM [^125I]-rANP(126-150), increasing concentrations of unlabeled peptide
T1 construct: endogenous in cells; host or cells: cultured BASM cells
T1 sequence (P10730 42-537): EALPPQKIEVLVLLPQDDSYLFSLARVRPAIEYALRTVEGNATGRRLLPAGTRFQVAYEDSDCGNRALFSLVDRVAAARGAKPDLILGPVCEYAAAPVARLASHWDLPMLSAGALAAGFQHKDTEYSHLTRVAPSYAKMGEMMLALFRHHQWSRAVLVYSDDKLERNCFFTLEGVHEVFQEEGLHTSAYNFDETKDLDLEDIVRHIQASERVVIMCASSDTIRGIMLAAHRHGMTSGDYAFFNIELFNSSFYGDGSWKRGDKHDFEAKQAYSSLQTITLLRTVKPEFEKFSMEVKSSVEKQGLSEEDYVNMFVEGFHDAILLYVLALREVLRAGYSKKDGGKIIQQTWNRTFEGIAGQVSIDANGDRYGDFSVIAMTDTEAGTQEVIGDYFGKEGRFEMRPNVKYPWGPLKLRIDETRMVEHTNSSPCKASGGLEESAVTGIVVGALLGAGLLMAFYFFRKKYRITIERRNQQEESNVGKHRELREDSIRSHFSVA
Text: as §1, §2

[4] = infused at 3 µg/kg/minute for 60 minutes
[5] = infused at 1 µg/kg/minute for 60 minutes

| Compound | receptor binding affinity (Ki(app)) [1] | also measured |
| --- | --- | --- |
| CC[C@H](C)[C@@H]1NC(=O)[C@H](CCCNC(=N)N)NC(=O)[C@H](CC(=O)O)NC(=O)[C@H]([C@@H](C)CC)NC(=O)[C@H](CCCNC(=N)N)NC(=O)CNC(=O)[C@@H](NC(=O)[C@H](CO)NC(=O)[C@H](CO)NC(=O)[C@@H](N)CCCNC(=N)N)CSSC[C@@H](C(=O)N[C@@H](CC(N)=O)C(=O)N[C@@H](CO)C(=O)N[C@@H](Cc2ccccc2)C(=O)N[C@@H](CCCNC(=N)N)C(=O)N[C@@H](Cc2ccc(O)cc2)C(=O)O)NC(=O)CNC(=O)[C@H](CC(C)C)NC(=O)CNC(=O)[C@H](CO)NC(=O)[C@H](CCC(N)=O)NC(=O)[C@H](C)NC(=O)CNC1=O [AP24, R-S-S-C-G-R-I-D-R-I-G-A-O-S-G-L-G-C-N-S-F-R-Y] (H-RSSCGRIDRIGAQSGLGCNSFRY-OH; disulfide 4-18) | weaker apparent affinity |  |
| CC[C@H](C)[C@H](NC(=O)[C@H](CCCNC(=N)N)NC(=O)[C@H](CC(=O)O)NC(=O)[C@@H](NC(=O)[C@@H](CCCNC(=N)N)NC(=O)CNC(=O)CNC(=O)[C@H](Cc1ccccc1)NC(=O)[C@H](C)N)[C@@H](C)CC)C(=O)NCC(=O)N[C@@H](C)C(N)=O [AP301, A-F-G-G-[D-R]-I-D-R-I-G-A-NH2] (H-AFGG[dR]IDRIGA-NH2) | inactive |  |
| CC[C@H](C)[C@H](NC(=O)[C@H](CCCNC(=N)N)NC(=O)[C@@H](CC(=O)O)NC(=O)[C@@H](NC(=O)[C@H](CCCNC(=N)N)NC(=O)CNC(=O)CNC(=O)[C@H](Cc1ccccc1)NC(=O)[C@H](C)N)[C@@H](C)CC)C(=O)NCC(=O)N[C@@H](C)C(N)=O [AP303, A-F-G-G-R-I-[D-D]-R-I-G-A-NH,] (H-AFGGRI[dD]RIGA-NH2) | inactive |  |
| CC[C@H](C)[C@H](NC(=O)[C@H](CCCNC(=N)N)NC(=O)CNC(=O)CNC(=O)[C@H](Cc1ccccc1)NC(=O)[C@H](C)N)C(=O)N[C@@H](CC(=O)O)C(=O)N[C@H](CCCNC(=N)N)C(=O)N[C@H](C(=O)NCC(=O)N[C@@H](C)C(N)=O)[C@@H](C)CC [AP304, A-F-G-G-R-I-D-[D-R]-I-G-A-NH2] (H-AFGGRID[dR]IGA-NH2) | inactive |  |
| CC[C@H](C)[C@H](NC(=O)[C@H](CCCNC(=N)N)NC(=O)[C@H](CC(=O)O)NC(=O)[C@@H](NC(=O)[C@H](CCCNC(=N)N)NC(=O)CNC(=O)CNC(=O)Cc1ccc2ccccc2c1)[C@@H](C)CC)C(=O)NCC(=O)N[C@@H](C)C(N)=O [AP306, [2-Napthylacetyl]-G-G-R-I-D-R-I-G-A-NH2] ({Acetyl(2-naphthyl)}-GGRIDRIGA-NH2) | high binding affinity; also recorded: substantial Ki(app)s | urinary sodium excretion [2, 4]: significantly increased; urine flow rate (urine volume) [2, 4]: significantly increased |
| CC[C@H](C)[C@H](NC(=O)[C@H](CCCNC(=N)N)NC(=O)[C@H](CC(=O)O)NC(=O)[C@@H](NC(=O)[C@H](CCCNC(=N)N)NC(=O)CNC(=O)CNC(=O)Cc1ccc2ccccc2c1)[C@@H](C)CC)C(N)=O [AP314, [2-Napthylacetyl]-G-G-R-I-D-R-I-NH2] ({Acetyl(2-naphthyl)}-GGRIDRI-NH2) | high binding affinity; also recorded: substantial Ki(app)s | urinary sodium excretion [2, 5]: significantly increased; urine flow rate (urine volume) [2, 5]: significantly increased |
| CC[C@H](C)[C@H](NC(=O)[C@H](CCCNC(=N)N)NC(=O)[C@H](CC(=O)O)NC(=O)[C@@H](NC(=O)[C@H](CCCNC(=N)N)NC(=O)CNC(=O)CNC(=O)Cc1ccc(-c2ccccc2)cc1)[C@@H](C)CC)C(N)=O [AP317, [4-Biphenylacetyl]-G-G-R-I-D-R-I-NH2] ({Phenylacetyl(4-Ph)}-GGRIDRI-NH2) | greatly diminished activity |  |
| CC[C@H](C)[C@H](NC(=O)[C@H](CCCNC(=N)N)NC(=O)[C@H](CC(=O)O)NC(=O)[C@@H](NC(=O)[C@H](CCCNC(=N)N)NC(=O)CNC(=O)CNC(=O)COc1ccc2ccccc2c1)[C@@H](C)CC)C(N)=O [AP319, [2-Napthoxyacetyl]-G-G-R-I-D-R-I-NH2] ({Acetyl(2-naphthyloxy)}-GGRIDRI-NH2) | high binding affinity | urine flow rate (urine volume) (anesthetized rats; infused at 10 µg/min via femoral vein): significantly increased |
| CC[C@H](C)[C@H](NC(=O)[C@H](CCCNC(=N)N)NC(=O)[C@H](CC(=O)O)NC(=O)[C@@H](NC(=O)[C@H](CCCNC(=N)N)NC(=O)CNC(=O)[C@@H](C)NC(=O)COc1ccc2ccccc2c1)[C@@H](C)CC)C(N)=O [AP322, [2-Napthoxyacetyl]-[D-A]-G-R-I-D-R-I-NH2] ({Acetyl(2-naphthyloxy)}-[dA]GRIDRI-NH2) | greatly diminished activity |  |
| CC[C@H](C)[C@H](NC(=O)[C@H](CCCNC(=N)N)NC(=O)CNC(=O)CNC(=O)Cc1ccc2ccccc2c1)C(=O)N[C@@H](CC(=O)O)C(=O)N[C@@H](CCCNC(=N)N)C(=O)N[C@H](C(N)=O)C(C)C [AP333, [2-Napthylacetyl]-G-G-R-I-D-R-V-NH2] ({Acetyl(2-naphthyl)}-GGRIDRV-NH2) | greatly diminished activity |  |
| (desNH2-F)-G-G-R-I-D-R-I-NH2 [AP132] |  | [^125I]-rANP(126-150) binding to BASM cell-associated receptors [3]: effectively prevent |
| AFGGRIDRIGA-NH2 [AP101, A-F-G-G-R-I-D-R-I-G-A-NH2] | substantial Ki(app)s | [^125I]-rANP(126-150) binding to BASM cell-associated receptors [3]: effectively prevent; urine flow rate (urine volume) (anesthetized rats; infused at 5 µg/min via femoral vein): significantly increased; urinary sodium excretion [2, 4]: significantly increased; urine flow rate (urine volume) [2, 4]: significantly increased |
| GGRIDRIGAA-NH2 [AP105, G-G-R-I-D-R-I-G-A-A-NH2] | inactive |  |
| RIDRIG-NH2 [AP125, R-I-D-R-I-G-NH2] | inactive |  |
